pIC50: −log10 of the molar value.

As a reminder, the pIC50 is −log10 of the IC50, conventionally taken in molar units.

Chain of H1047R PIK3CA enzyme (P42336 whole entry H1047R): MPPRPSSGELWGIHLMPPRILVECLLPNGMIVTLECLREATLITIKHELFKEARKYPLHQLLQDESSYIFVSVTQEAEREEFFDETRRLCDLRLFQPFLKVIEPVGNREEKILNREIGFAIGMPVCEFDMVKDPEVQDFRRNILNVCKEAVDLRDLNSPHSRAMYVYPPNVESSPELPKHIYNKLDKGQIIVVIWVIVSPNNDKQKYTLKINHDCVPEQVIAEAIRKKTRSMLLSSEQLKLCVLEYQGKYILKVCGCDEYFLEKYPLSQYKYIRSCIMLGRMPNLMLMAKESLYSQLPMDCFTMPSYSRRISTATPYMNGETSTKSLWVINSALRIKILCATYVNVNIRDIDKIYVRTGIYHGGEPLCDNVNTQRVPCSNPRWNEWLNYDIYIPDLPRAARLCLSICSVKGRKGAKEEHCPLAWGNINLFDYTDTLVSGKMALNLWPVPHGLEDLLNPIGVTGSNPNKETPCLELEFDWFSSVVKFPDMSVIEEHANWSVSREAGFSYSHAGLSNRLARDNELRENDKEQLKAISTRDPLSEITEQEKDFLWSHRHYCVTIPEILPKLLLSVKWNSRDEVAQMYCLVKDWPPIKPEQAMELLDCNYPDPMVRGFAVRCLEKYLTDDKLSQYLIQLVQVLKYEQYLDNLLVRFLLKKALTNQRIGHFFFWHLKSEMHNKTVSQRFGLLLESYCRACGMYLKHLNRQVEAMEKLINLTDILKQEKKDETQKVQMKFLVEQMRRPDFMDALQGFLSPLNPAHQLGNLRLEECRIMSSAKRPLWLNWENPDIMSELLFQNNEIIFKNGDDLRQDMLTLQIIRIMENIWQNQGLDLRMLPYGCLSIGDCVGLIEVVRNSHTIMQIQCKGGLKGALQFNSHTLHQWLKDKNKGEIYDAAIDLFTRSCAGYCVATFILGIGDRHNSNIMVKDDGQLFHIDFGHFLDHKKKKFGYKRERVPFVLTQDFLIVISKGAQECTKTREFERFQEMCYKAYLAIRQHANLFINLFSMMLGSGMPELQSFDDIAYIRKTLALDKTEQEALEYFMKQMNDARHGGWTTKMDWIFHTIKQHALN
Chain of H1047R PIK3CA enzyme (P27986 whole entry partner): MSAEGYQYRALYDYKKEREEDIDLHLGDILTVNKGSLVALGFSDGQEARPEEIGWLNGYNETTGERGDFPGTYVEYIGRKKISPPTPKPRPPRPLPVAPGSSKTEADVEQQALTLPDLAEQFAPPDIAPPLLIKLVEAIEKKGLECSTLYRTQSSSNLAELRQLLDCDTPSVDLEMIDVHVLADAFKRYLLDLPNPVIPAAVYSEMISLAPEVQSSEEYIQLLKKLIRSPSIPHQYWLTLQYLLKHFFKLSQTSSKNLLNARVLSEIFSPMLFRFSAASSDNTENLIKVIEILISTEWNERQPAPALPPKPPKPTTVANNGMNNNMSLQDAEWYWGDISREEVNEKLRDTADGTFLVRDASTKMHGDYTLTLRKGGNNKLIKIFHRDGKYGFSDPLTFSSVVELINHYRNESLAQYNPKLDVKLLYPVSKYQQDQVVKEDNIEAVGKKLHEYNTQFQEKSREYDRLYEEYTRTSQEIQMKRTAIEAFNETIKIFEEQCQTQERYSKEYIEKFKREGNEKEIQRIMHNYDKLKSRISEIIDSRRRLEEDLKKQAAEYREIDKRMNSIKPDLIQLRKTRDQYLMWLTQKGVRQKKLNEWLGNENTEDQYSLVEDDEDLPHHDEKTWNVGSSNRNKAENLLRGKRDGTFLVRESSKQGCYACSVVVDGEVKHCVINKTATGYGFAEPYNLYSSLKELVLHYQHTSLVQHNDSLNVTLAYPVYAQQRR

The first assay has as its target H1047R PIK3CA enzyme (Homo sapiens, UniProt P42336, H1047R). Kind of assay: ADP-Glo Biochemical PIK3CA Kinase Assay.
Conditions: not given
A general note: In ADP-Glo the light output rises with the ADP produced.
In turn, `O=C(Nc1cc(-c2cnn(-c3ncccn3)c2)cc2c1C(c1cc(F)ccc1Cl)NC2=O)c1cc(F)cc(C(F)(F)F)c1` (stereo not drawn) [Compound I-1418] had a negative-log IC50 (pIC50) of no less than 7.00.

In turn, `O=C(Nc1cc(-c2cn3ncnc3cn2)cc2c1[C@H](c1cc(F)ccc1Cl)NC2=O)c1cc(F)cc(C(F)(F)F)c1` [Compound I-1441] gave a pIC50 of no less than 7.00.

As for `O=C1N[C@@H](c2cc(F)ccc2Cl)c2c(NC(=O)c3csc4ccccc34)cc(-c3ccc4ncnn4c3)cc21` [Compound I-1684], the pIC50 is no less than 7.00.

The molecule `O=C1N[C@@H](c2cc(F)ccc2Cl)c2c(NC(=O)[C@H]3CCC[C@@H](C(F)(F)F)C3)cc(-c3ccc4ncnn4c3)cc21` [Compound I-2029] had a negative-log IC50 (pIC50) of no less than 7.00.

`CNc1nc2ccc(-c3cc(NC(=O)c4cc(F)cc(C(F)(F)F)c4)c4c(c3)C(=O)NC4c3cc(F)ccc3Cl)cn2n1` (stereo not drawn) [Compound I-2125] gave a pIC50 of no less than 7.00.

In turn, `N#CC1(C(=O)Nc2cc(NC(=O)c3cc(F)cc(C(F)(F)F)c3)c3c(c2)C(=O)NC3c2cc(F)ccc2Cl)CNC1` (stereo not drawn) [Compound I-2149] showed a pIC50 of no less than 7.00.

`O=C(Nc1cc(-c2cn3ncnc3cn2)cc2c1C(c1cc(F)ccc1C(F)F)NC2=O)c1cc(F)cc(C(F)(F)F)c1` (stereo not drawn) [Compound I-2185]: the pIC50 is no less than 7.00.

`CC(C)(CN)n1cc(-c2cc(NC(=O)c3cc(F)cc(C(F)(F)F)c3)c3c(c2)C(=O)NC3c2cc(F)ccc2Cl)cn1` (stereo not drawn) [Compound I-2186] had a pIC50 of no less than 7.00.

Take `O=C(Nc1cc(-n2ccccc2=O)cc2c1C(c1cc(F)ccc1Cl)NC2=O)c1cc(F)cc(C(F)(F)F)c1` (stereo not drawn) [Compound I-2192]: the pIC50 was no less than 7.00.

Consider `CN(C)c1nc2cc(-c3cc(NC(=O)c4cc(F)cc(C(F)(F)F)c4)c4c(c3)C(=O)NC4c3cc(F)ccc3Cl)ccn2n1` (stereo not drawn) [Compound I-2200], for which the pIC50 is no less than 7.00.

Take `O=C(Nc1cc(-c2cn3ncnc3cn2)cc2c1C(c1cc(F)ccc1C(F)F)NC2=O)c1cc(F)cc(Cl)c1` (stereo not drawn) [Compound I-2201]: the pIC50 was no less than 7.00.

Molecule `N#Cc1c(N)cc(NC(=O)c2cc(F)cc(C(F)(F)F)c2)c2c1C(=O)NC2c1cc(F)ccc1Cl` (stereo not drawn) [Compound I-2223] showed a pIC50 of no less than 7.00.

As to `O=C(Nc1cccc2c1C(c1cc(F)ccc1Cl)NC2=O)c1csc2c1CCCC2` (stereo not drawn) [Compound I-2239], the pIC50 is no less than 7.00.

As to `O=C(Nc1cc(NC2=NCCO2)cc2c1C(c1cc(F)ccc1Cl)NC2=O)c1cc(F)cc(C(F)(F)F)c1` (stereo not drawn) [Compound I-2256], the pIC50 is no less than 7.00.

For the molecule `O=C1NC(c2cc(F)ccc2C(F)F)c2c(NC(=O)N3CC(O)c4cc(F)ccc43)cc(Br)cc21` (stereo not drawn) [Compound I-2257], the pIC50 was no less than 7.00.

With `CC(O)c1cc(NC(=O)N2CC(O)c3ccccc32)c2c(c1)C(=O)NC2c1cc(F)ccc1Cl` (stereo not drawn) [Compound I-2288], the pIC50 was no less than 7.00.

Molecule `CC(C#N)c1cc(NC(=O)c2cc(F)cc(C(F)(F)F)c2)c2c(c1)C(=O)N[C@H]2c1cc(F)ccc1Cl` (stereo partly drawn) [Compound I-2290] gave a negative logarithm of the IC50 (pIC50) of no less than 7.00.

As for `O=C(Nc1cc(NC2=NCC(C(F)(F)F)O2)cc2c1C(c1cc(F)ccc1Cl)NC2=O)c1cc(F)cc(C(F)(F)F)c1` (stereo not drawn) [Compound I-2297], the pIC50 was no less than 7.00.

`O=C1NC(c2cc(F)ccc2Cl)c2c(NC(=O)N3CC(O)c4cc(F)ccc43)cc(-c3cnn(C(F)F)c3)cc21` (stereo not drawn) [Compound I-2299] showed a pIC50 of no less than 7.00.

Consider `O=C1NC(c2cc(F)ccc2Cl)c2c(NC(=O)N3CCc4cc(F)ccc43)cc(-c3cnn(C(F)F)c3)cc21` (stereo not drawn) [Compound I-2300], for which the pIC50 was no less than 7.00.

`O=C(Nc1cc(NC2=NC3(CC3)CO2)cc2c1C(c1cc(F)ccc1Cl)NC2=O)c1cc(F)cc(C(F)(F)F)c1` (stereo not drawn) [Compound I-2359] gave a pIC50 of no less than 7.00.

The molecule `O=C(Nc1cc(NC2=NC(C(F)(F)F)CO2)cc2c1C(c1cc(F)ccc1Cl)NC2=O)c1cc(F)cc(C(F)(F)F)c1` (stereo not drawn) [Compound I-2360] gave a pIC50 of no less than 7.00.

In turn, `O=C(Nc1cc(NC2=NC3(CO2)CC(F)(F)C3)cc2c1C(c1cc(F)ccc1Cl)NC2=O)c1cc(F)cc(C(F)(F)F)c1` (stereo not drawn) [Compound I-2409] showed a pIC50 of no less than 7.00.

For `N#Cc1cc(NC(=O)N2CC(O)(C(F)(F)F)c3cc(F)ccc32)c2c(c1)C(=O)NC2c1cc(F)ccc1Cl` (stereo not drawn) [Compound I-2469], the negative-log IC50 (pIC50) was no less than 7.00.

System in another assay: not listed separately
The experiment in a line: cells. As to conditions: Homo sapiens, MCF-10A, read-out: MCF10A IC50.
Take `O=C(Nc1cc(-c2cnn(-c3ncccn3)c2)cc2c1C(c1cc(F)ccc1Cl)NC2=O)c1cc(F)cc(C(F)(F)F)c1` (stereo not drawn) [Compound I-1418]: the pIC50 is greater than 6.00.

Regarding `O=C(Nc1cc(-c2cn3ncnc3cn2)cc2c1[C@H](c1cc(F)ccc1Cl)NC2=O)c1cc(F)cc(C(F)(F)F)c1` [Compound I-1441], the pIC50 was greater than 6.00.

Regarding `O=C1N[C@@H](c2cc(F)ccc2Cl)c2c(NC(=O)c3csc4ccccc34)cc(-c3ccc4ncnn4c3)cc21` [Compound I-1684], the pIC50 is greater than 6.00.

For `O=C1N[C@@H](c2cc(F)ccc2Cl)c2c(NC(=O)[C@H]3CCC[C@@H](C(F)(F)F)C3)cc(-c3ccc4ncnn4c3)cc21` [Compound I-2029], the pIC50 was greater than 6.00.

As for `CNc1nc2ccc(-c3cc(NC(=O)c4cc(F)cc(C(F)(F)F)c4)c4c(c3)C(=O)NC4c3cc(F)ccc3Cl)cn2n1` (stereo not drawn) [Compound I-2125], the pIC50 is greater than 6.00.

As to `N#CC1(C(=O)Nc2cc(NC(=O)c3cc(F)cc(C(F)(F)F)c3)c3c(c2)C(=O)NC3c2cc(F)ccc2Cl)CNC1` (stereo not drawn) [Compound I-2149], the pIC50 was 4.44 to 5.00.

With `O=C(Nc1cc(-c2cn3ncnc3cn2)cc2c1C(c1cc(F)ccc1C(F)F)NC2=O)c1cc(F)cc(C(F)(F)F)c1` (stereo not drawn) [Compound I-2185], the negative logarithm of the IC50 (pIC50) was greater than 6.00.

For the molecule `CC(C)(CN)n1cc(-c2cc(NC(=O)c3cc(F)cc(C(F)(F)F)c3)c3c(c2)C(=O)NC3c2cc(F)ccc2Cl)cn1` (stereo not drawn) [Compound I-2186], the pIC50 is 5.30 to 6.00.

`O=C(Nc1cc(-n2ccccc2=O)cc2c1C(c1cc(F)ccc1Cl)NC2=O)c1cc(F)cc(C(F)(F)F)c1` (stereo not drawn) [Compound I-2192]: the pIC50 is 5.30 to 6.00.

Consider `CN(C)c1nc2cc(-c3cc(NC(=O)c4cc(F)cc(C(F)(F)F)c4)c4c(c3)C(=O)NC4c3cc(F)ccc3Cl)ccn2n1` (stereo not drawn) [Compound I-2200], for which the pIC50 is greater than 6.00.

For the molecule `O=C(Nc1cc(-c2cn3ncnc3cn2)cc2c1C(c1cc(F)ccc1C(F)F)NC2=O)c1cc(F)cc(Cl)c1` (stereo not drawn) [Compound I-2201], the pIC50 is 5.30 to 6.00.

On to `N#Cc1c(N)cc(NC(=O)c2cc(F)cc(C(F)(F)F)c2)c2c1C(=O)NC2c1cc(F)ccc1Cl` (stereo not drawn) [Compound I-2223], for which the pIC50 is greater than 6.00.

With `O=C(Nc1cccc2c1C(c1cc(F)ccc1Cl)NC2=O)c1csc2c1CCCC2` (stereo not drawn) [Compound I-2239], the pIC50 was 5.30 to 6.00.

Turning to `O=C(Nc1cc(NC2=NCCO2)cc2c1C(c1cc(F)ccc1Cl)NC2=O)c1cc(F)cc(C(F)(F)F)c1` (stereo not drawn) [Compound I-2256], the pIC50 was 5.30 to 6.00.

Regarding `O=C1NC(c2cc(F)ccc2C(F)F)c2c(NC(=O)N3CC(O)c4cc(F)ccc43)cc(Br)cc21` (stereo not drawn) [Compound I-2257], the pIC50 was 5.30 to 6.00.

As for `CC(O)c1cc(NC(=O)N2CC(O)c3ccccc32)c2c(c1)C(=O)NC2c1cc(F)ccc1Cl` (stereo not drawn) [Compound I-2288], the pIC50 is 4.44 to 5.00.

As to `CC(C#N)c1cc(NC(=O)c2cc(F)cc(C(F)(F)F)c2)c2c(c1)C(=O)N[C@H]2c1cc(F)ccc1Cl` (stereo partly drawn) [Compound I-2290], the pIC50 was greater than 6.00.

As for `O=C(Nc1cc(NC2=NCC(C(F)(F)F)O2)cc2c1C(c1cc(F)ccc1Cl)NC2=O)c1cc(F)cc(C(F)(F)F)c1` (stereo not drawn) [Compound I-2297], the pIC50 is 5.30 to 6.00.

Take `O=C1NC(c2cc(F)ccc2Cl)c2c(NC(=O)N3CC(O)c4cc(F)ccc43)cc(-c3cnn(C(F)F)c3)cc21` (stereo not drawn) [Compound I-2299]: the pIC50 was 5.30 to 6.00.

As to `O=C1NC(c2cc(F)ccc2Cl)c2c(NC(=O)N3CCc4cc(F)ccc43)cc(-c3cnn(C(F)F)c3)cc21` (stereo not drawn) [Compound I-2300], the pIC50 was 5.30 to 6.00.

`O=C(Nc1cc(NC2=NC3(CC3)CO2)cc2c1C(c1cc(F)ccc1Cl)NC2=O)c1cc(F)cc(C(F)(F)F)c1` (stereo not drawn) [Compound I-2359]: the negative-log IC50 (pIC50) is 5.30 to 6.00.

Regarding `O=C(Nc1cc(NC2=NC(C(F)(F)F)CO2)cc2c1C(c1cc(F)ccc1Cl)NC2=O)c1cc(F)cc(C(F)(F)F)c1` (stereo not drawn) [Compound I-2360], the pIC50 is 5.00 to 5.30.

For the molecule `O=C(Nc1cc(NC2=NC3(CO2)CC(F)(F)C3)cc2c1C(c1cc(F)ccc1Cl)NC2=O)c1cc(F)cc(C(F)(F)F)c1` (stereo not drawn) [Compound I-2409], the pIC50 is 5.00 to 5.30.

Turning to `N#Cc1cc(NC(=O)N2CC(O)(C(F)(F)F)c3cc(F)ccc32)c2c(c1)C(=O)NC2c1cc(F)ccc1Cl` (stereo not drawn) [Compound I-2469], the pIC50 is greater than 6.00.

For the origin of these results see patent publication US12581252B2, “Substituted pyrrolo[3,4-b]pyridines as PI3K-α inhibitors” (Relay Therapeutics, Inc., priority 2020, dated 2026).
